# Test results from ChEMBL document CHEMBL3351476, “The discovery of I-BET726 (GSK1324726A), a potent tetrahydroquinoline ApoA1 up-regulator and selective BET bromodomain inhibitor” (J Med Chem, 2014).
# How the values were obtained:
# [1] = Blood clearance in Balb/c mouse at 10 mg/kg, iv as bolus dose; assay type: ADME, organism-based; parameters: dose 10 mg/kg, route intravenous; conditions: whole blood
# Cytochrome P450 2C9 = Cytochrome P450 2C9 (Homo sapiens, UniProt P11712); test: Inhibition of CYP2C9 (unknown origin) expressed in Escherichia coli bactosomes using 7-methoxy-4-trifluoromethylcoumarin-3-acetic acid as substrate after 10 mins by fluorescence assay; assay type: ADME
# [2] = target: SWI/SNF-related matrix-associated actin-dependent regulator of chromatin subfamily A member 2 (Homo sapiens, UniProt P51531); test: Inhibition of human SMARCA2 by BROMOscan assay
# [3] = target: Bromodomain-containing protein 3 (Homo sapiens, UniProt Q15059); test: Displacement of biotinylated tetra-acetylated histone H4 from His6-tagged BRD3 (1 to 475 aa) (unknown origin) after 1 hr by TR-FRET assay
# Peregrin = Peregrin (Homo sapiens, UniProt P55201); test: Inhibition of human BRPF1 by BROMOscan assay
# HepG2 = test: Upregulation of ApoA1 in human HepG2 cells after 16 hrs by luciferase reporter assay relative to control; assay type: functional
# Hepatocyte [4] = test: Clearance in human hepatocytes assessed per gram of tissue at 1 uM by LC-MS/MS analysis; assay type: ADME, cell-based
# [5] = AUC (0 to t) in Balb/c mouse at 3 mg/kg, po; assay type: ADME, organism-based; parameters: dose 3 mg/kg, route oral; conditions: plasma
# [6] = AUC (0 to t) in rat at 3 mg/kg, po; assay type: ADME, organism-based; parameters: dose 3 mg/kg, route oral; conditions: plasma
# Protein polybromo-1 = Protein polybromo-1 (Homo sapiens, UniProt Q86U86); test: Inhibition of human PBRM1 bromodomain 1 by BROMOscan assay
# [7] = Oral bioavailability in Balb/c mouse at 3 mg/kg; assay type: ADME, organism-based; conditions: in vivo
# [8] = target: Bromodomain-containing protein 7 (Homo sapiens, UniProt Q9NPI1); test: Inhibition of human BRD7 by BROMOscan assay
# Mus musculus = test: Antiinflammatory activity in septic shock Balb/c mouse model assessed as mouse survival at 10 mg/kg, iv as single dose post LPS challenge measured after 5 days post treatment relative to vehicle-treated control; assay type: functional; conditions: 120 h
# [9] = target: Transcription intermediary factor 1-alpha (Homo sapiens, UniProt O15164); test: Inhibition of human TIF1alpha PHD/bromodomain by BROMOscan assay
# Sequence of Transcription intermediary factor 1-alpha (O15164 whole entry): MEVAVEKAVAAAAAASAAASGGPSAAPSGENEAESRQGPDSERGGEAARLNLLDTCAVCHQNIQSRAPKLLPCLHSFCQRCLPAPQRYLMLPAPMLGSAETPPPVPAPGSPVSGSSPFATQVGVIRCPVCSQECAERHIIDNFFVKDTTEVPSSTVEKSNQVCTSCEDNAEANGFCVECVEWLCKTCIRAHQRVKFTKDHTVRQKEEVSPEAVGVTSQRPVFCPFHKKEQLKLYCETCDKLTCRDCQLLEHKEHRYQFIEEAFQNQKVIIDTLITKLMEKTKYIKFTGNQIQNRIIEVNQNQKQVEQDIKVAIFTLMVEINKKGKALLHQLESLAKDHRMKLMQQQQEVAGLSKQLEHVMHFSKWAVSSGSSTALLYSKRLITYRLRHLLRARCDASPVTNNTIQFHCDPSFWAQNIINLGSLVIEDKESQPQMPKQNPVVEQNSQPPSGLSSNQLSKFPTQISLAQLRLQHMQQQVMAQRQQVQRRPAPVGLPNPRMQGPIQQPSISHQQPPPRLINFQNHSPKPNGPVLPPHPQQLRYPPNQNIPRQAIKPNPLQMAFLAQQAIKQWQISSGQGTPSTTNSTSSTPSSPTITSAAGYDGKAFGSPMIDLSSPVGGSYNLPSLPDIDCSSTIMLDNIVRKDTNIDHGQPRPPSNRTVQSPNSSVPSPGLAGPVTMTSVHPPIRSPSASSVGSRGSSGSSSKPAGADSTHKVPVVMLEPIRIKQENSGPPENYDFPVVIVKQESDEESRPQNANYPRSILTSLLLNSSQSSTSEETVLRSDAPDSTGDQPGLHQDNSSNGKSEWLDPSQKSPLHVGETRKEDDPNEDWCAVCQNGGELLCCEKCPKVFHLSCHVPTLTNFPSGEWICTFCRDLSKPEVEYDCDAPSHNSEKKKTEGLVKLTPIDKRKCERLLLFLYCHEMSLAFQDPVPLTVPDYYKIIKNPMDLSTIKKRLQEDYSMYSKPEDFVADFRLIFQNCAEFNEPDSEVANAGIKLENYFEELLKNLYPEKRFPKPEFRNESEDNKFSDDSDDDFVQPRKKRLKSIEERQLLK
# [10] = target: Histone acetyltransferase p300 (Homo sapiens, UniProt Q09472); test: Inhibition of human EP300 by BROMOscan assay
# [11] = Blood clearance in rat at 1 mg/kg, iv as infusion and 3 mg/kg, po; assay type: ADME, organism-based; conditions: whole blood
# [12] = target: Bromodomain-containing protein 2 (Homo sapiens, UniProt P25440); test: Inhibition of human BRD2 bromodomain 1 by BROMOscan assay
# Sequence of Bromodomain-containing protein 2 (P25440 whole entry): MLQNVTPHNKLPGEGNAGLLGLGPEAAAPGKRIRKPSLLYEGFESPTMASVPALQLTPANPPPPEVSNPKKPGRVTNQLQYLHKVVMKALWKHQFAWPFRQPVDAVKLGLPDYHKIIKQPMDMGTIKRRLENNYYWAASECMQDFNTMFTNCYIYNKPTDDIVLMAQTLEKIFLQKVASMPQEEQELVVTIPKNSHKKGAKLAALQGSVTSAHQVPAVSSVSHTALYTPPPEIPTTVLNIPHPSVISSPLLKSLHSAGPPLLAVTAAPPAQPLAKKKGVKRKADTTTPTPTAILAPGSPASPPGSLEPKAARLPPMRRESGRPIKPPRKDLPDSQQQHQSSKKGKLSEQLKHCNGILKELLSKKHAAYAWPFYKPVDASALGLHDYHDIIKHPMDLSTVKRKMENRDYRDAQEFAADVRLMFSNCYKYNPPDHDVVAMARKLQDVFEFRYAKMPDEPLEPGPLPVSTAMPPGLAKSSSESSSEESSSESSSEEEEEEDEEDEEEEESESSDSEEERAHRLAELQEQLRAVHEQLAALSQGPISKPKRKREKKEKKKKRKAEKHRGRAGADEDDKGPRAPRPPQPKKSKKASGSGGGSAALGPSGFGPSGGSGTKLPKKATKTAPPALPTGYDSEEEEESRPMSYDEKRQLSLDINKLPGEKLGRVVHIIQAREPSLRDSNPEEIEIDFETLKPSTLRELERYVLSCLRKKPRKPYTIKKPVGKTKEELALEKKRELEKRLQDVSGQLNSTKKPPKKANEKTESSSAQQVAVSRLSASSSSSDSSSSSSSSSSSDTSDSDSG
# [13] = Clearance in Cynomolgus monkey hepatocytes assessed per gram of tissue at 1 uM by LC-MS/MS analysis; assay type: ADME, cell-based, Macaca fascicularis, Hepatocyte
# Hepatocyte [14] = test: Clearance in rat hepatocytes assessed per gram of tissue at 1 uM by LC-MS/MS analysis; assay type: ADME, cell-based
# CREB-binding protein [15] = target: T1, CREB-binding protein (Homo sapiens, UniProt Q92793); test: Binding affinity to CREBBP (unknown origin) by ITC method
# T1 sequence (Q92793 whole entry): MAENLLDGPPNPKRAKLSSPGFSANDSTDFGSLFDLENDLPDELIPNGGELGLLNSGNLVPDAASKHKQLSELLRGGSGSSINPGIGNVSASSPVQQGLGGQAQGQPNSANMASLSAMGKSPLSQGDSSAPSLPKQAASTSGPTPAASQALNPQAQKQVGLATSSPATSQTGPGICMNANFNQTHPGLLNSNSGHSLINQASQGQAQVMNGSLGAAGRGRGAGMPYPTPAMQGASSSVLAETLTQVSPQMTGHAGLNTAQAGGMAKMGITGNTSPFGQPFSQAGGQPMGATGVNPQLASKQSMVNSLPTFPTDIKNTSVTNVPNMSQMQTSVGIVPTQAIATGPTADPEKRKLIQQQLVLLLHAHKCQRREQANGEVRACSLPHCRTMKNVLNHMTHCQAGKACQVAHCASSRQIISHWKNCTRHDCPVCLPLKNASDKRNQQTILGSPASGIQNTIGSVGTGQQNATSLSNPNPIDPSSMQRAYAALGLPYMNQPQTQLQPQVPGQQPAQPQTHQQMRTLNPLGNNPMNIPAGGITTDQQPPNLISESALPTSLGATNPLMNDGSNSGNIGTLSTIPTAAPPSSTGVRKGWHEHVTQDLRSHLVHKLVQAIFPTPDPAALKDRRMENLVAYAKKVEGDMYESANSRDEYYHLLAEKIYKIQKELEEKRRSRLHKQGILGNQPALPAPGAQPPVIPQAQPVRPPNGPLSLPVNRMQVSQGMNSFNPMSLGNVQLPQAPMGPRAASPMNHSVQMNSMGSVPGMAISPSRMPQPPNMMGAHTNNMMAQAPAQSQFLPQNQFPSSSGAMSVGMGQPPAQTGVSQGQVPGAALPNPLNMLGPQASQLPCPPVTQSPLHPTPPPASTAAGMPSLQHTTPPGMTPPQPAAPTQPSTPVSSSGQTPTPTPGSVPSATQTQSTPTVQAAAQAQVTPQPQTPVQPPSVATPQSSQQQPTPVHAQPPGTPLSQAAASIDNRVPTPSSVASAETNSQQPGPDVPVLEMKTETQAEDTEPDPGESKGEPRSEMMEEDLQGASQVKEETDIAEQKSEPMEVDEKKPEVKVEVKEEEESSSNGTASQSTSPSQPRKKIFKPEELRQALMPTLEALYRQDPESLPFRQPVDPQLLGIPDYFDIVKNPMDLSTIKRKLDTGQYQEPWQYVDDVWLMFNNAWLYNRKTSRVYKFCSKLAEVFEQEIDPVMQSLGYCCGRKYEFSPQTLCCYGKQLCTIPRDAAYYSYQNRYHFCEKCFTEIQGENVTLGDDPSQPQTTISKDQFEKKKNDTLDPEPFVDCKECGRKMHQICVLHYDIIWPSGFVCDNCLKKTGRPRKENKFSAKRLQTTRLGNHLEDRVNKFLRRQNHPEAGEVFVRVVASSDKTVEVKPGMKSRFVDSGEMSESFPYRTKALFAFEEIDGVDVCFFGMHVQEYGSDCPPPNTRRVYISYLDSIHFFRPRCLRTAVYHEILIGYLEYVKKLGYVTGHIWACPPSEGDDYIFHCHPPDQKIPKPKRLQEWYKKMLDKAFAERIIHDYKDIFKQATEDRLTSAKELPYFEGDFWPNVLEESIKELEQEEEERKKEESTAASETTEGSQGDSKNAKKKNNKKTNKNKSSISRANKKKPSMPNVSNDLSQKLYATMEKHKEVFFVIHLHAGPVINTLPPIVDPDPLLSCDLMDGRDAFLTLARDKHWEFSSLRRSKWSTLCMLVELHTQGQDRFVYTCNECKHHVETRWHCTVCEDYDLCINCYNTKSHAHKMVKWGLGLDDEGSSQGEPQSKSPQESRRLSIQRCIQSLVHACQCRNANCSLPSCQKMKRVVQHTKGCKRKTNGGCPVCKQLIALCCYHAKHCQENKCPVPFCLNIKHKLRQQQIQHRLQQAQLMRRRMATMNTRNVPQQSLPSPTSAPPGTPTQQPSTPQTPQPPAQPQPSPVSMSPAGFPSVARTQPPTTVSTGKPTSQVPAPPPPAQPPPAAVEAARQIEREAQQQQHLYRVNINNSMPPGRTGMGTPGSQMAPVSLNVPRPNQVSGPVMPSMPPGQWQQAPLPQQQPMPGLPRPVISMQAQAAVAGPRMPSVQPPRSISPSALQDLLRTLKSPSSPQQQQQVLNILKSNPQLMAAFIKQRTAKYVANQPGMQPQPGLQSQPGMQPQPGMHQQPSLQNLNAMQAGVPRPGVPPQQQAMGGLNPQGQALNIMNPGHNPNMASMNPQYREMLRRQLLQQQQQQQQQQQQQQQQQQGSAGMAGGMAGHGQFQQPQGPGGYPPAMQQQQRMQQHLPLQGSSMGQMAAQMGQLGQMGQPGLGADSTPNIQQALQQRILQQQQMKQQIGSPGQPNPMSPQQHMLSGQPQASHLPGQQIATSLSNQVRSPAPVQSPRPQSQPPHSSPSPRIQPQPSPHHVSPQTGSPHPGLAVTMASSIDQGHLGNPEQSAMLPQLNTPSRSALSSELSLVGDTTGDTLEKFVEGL
# Cytochrome P450 2D6 = Cytochrome P450 2D6 (Homo sapiens, UniProt P10635); test: Inhibition of recombinant human CYP2D6 expressed in Escherichia coli bactosomes using 4-methylaminomethyl-7-methoyxycoumarin as substrate after 10 mins by fluorescence assay; assay type: ADME
# Sequence of Cytochrome P450 2D6 (P10635 whole entry): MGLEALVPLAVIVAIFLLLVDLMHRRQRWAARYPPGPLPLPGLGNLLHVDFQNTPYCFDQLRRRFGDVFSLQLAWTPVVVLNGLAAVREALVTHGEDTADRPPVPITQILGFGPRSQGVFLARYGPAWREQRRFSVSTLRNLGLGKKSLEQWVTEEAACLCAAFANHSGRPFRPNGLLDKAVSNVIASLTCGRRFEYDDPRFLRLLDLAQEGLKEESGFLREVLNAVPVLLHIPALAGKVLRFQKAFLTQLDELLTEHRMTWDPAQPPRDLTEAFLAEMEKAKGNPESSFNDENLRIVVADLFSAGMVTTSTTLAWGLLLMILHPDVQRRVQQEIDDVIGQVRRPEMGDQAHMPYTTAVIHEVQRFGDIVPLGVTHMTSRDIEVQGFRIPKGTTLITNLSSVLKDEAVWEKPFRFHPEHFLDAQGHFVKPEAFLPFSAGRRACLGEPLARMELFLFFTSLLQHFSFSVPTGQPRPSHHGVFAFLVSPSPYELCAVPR
# [16] = Solubility of the compound in fasted state simulated intestinal fluid at 125 ug/ml after 16 hrs by HPLC analysis; assay type: ADME; conditions: fasted state simulated intestinal fluid
# [17] = Terminal half life in rat at 1 mg/kg, iv as infusion; assay type: ADME, organism-based; parameters: dose 1 mg/kg, route intravenous; conditions: in vivo, read-out: beta t1/2
# CREB-binding protein [18] = target: T1, CREB-binding protein; test: Inhibition of human CREBBP by BROMOscan assay
# [19] = target: Bromodomain testis-specific protein (Homo sapiens, UniProt Q58F21); test: Inhibition of human BRDT bromodomain 2 by BROMOscan assay
structure (smiles),measurement,setting,value
CC(=O)N1c2ccc(-c3ccc(C(=O)O)cc3)cc2[C@H](Nc2ccc(Cl)cc2)C[C@@H]1C,clearance,[1],3.1 mL/min/kg
same,IC50,Cytochrome P450 2C9,13 µM
same,IC50,[2],> 31.6 µM
same,IC50,[3],0.2 µM
same,IC50,Peregrin,> 0.00398 µM
same,pEC170,HepG2,8.1
same,CLH,Hepatocyte [4],< 0.85 mL/min/g
same,AUC(0-t),[5],6030 ng·h/mL
same,AUC(0-t),[6],539 ng·h/mL
same,IC50,Protein polybromo-1,0.631 µM
same,bioavailability,[7],45%
same,IC50,[8],> 0.00126 µM
same,survival at 10 mg/kg,Mus musculus,56%
same,IC50,[9],15.8 µM
same,IC50,[10],31.6 µM
same,clearance,[11],26 mL/min/kg
same,IC50,[12],> 31.6 µM
same,CLH,[13],< 0.85 mL/min/g
same,CLH,Hepatocyte [14],< 0.85 mL/min/g
same,Kd,CREB-binding protein [15],6.3 µM
same,IC50,Cytochrome P450 2D6,> 33 µM
same,solubility at 16 h,[16],106 µg/mL
same,half-life,[17],> 8 h
same,IC50,CREB-binding protein [18],31.6 µM
same,IC50,[19],31.6 µM
